Results as given in ChEMBL document CHEMBL1201862, “PubChem BioAssay data set” (2004).
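Tested at 5 concentrations; 48 h exposure; 96-well plates; endpoints linearly interpolated, else capped at highest concentration. Here, GI50 denotes the concentration required for 50% inhibition of growth.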 Calls of active or inactive are those of the source. No stated cut-off is given here; in the data, active = GI50 up to about 1.1 µM and inactive = higher.

Experiments:
Test in all cases: growth of human tumour cells (NCI), 48 h
CCRF-CEM = system: CCRF-CEM
DU-145 = system: DU-145
HOP-92 = system: HOP-92
HT-29 = system: HT-29
IGROV-1 = system: IGROV-1
KM12 = system: KM12
M14 = system: M14
Malme-3M = system: Malme-3M
NCI-H460 = system: NCI-H460
OVCAR-3 = system: OVCAR-3
OVCAR-4 = system: OVCAR-4
OVCAR-5 = system: OVCAR-5
OVCAR-8 = system: OVCAR-8
PC-3 = system: PC-3
RPMI-8226 = system: RPMI-8226
SK-MEL-5 = system: SK-MEL-5
SNB-19 = system: SNB-19
SW-620 = system: SW-620
T47D = system: T47D
U-251 = system: U-251

Measured: GI50

CCC12C=CCN3CCC4(c5cc(C(c6ccc(OC)cc6)C6Cc7ccccc7N6)c(OC)cc5N(C)C4C(O)(C(=O)OC)C1O)C32 (stereo not given)
inactive: CCRF-CEM 3.67 µM | DU-145 29 µM | HOP-92 2.81 µM | HT-29 18.2 µM | IGROV-1 16.9 µM | KM12 5.89 µM | M14 24.2 µM | Malme-3M 36.6 µM | NCI-H460 17.6 µM | OVCAR-3 19.2 µM | OVCAR-4 9.33 µM | OVCAR-5 36.7 µM | OVCAR-8 15.1 µM | PC-3 12.6 µM | RPMI-8226 1.83 µM | SK-MEL-5 12.1 µM | SNB-19 17.9 µM | SW-620 21.5 µM | T47D 2.9 µM | U-251 11 µM

COC12C(COC(=O)NCCO)C3=C(C(=O)C(C)=C(N)C3=O)N1CC1NC12 (stereo not given)
inactive: CCRF-CEM 12.1 µM | DU-145 39.4 µM | HOP-92 30 µM | HT-29 29.2 µM | IGROV-1 29.2 µM | KM12 69.3 µM | M14 11.5 µM | Malme-3M 21.1 µM | NCI-H460 5.01 µM | OVCAR-3 68.7 µM | OVCAR-4 65.8 µM | OVCAR-5 28.7 µM | OVCAR-8 38.3 µM | PC-3 35.2 µM | RPMI-8226 74.8 µM | SK-MEL-5 14.2 µM | SNB-19 16.4 µM | SW-620 16.7 µM | T47D 60.3 µM | U-251 4.05 µM
